Tests used:
IL-1β mRNA [1] = test: Cytokine mRNA expression inhibitory ability, IL-1β, LPS-treated BV2 cells; format: cell-based; settings: 1 μM compound 24 hours, then 1000 ng/ml LPS 24 hours
Method: (§1) Evaluation of cytokine mRNA expression inhibitory ability by inflammatory response
(§2) In order to identify inhibition of p-p38 MAPK, the inhibition of p38 MAPK was identified by treating each compound to BV2 cells obtained by converting microglia that induces inflammation according to p-p38 MAPK activity in the brain into cancerous cells. Briefly, BV2 cells were cultured in Dulbecco's modified Eagle Medium supplemented with 10% fetal bovine serum and penicillin/streptomycin (100 U/ml). BV2 cells were treated with 1 μM of Compounds 4 to 6 according to the present disclosure in a culture dish respectively and cultured for 24 hours in a CO2 incubator, and then treated with 1000 ng/ml of LPS, followed by additional culture for 24 hours in a CO2 incubator.
(§3) After the cell culture was completed according to the experimental conditions, washing was performed with cold phosphate buffered saline (PBS). The cells were then collected and centrifuged at 1200 rpm for 3 minutes. RNA was extracted according to the method provided in the Hybrid-R total RNA purification kit (GeneAllR), 305-101). After measuring the concentration and purity of RNA using Nanodrop, cDNA was synthesized according to the method provided in TOPscript RT DryMIX (Enzynomics, RT200). […]

TNFα mRNA = test: Cytokine mRNA expression inhibitory ability, TNFα, LPS-treated BV2 cells; format: cell-based; settings: 1 μM compound 24 hours, then 1000 ng/ml LPS 24 hours
Method: as §1, §2, §3

p-p38 MAPK = p-p38 MAPK (Homo sapiens (Human), UniProt Q16539); test: p38 MAPK protein inhibitory ability in brain-derived cells (p-p38 immunoblot, SH-SY5Y); format: cell-based
Sequence of p-p38 MAPK (Q16539 whole entry): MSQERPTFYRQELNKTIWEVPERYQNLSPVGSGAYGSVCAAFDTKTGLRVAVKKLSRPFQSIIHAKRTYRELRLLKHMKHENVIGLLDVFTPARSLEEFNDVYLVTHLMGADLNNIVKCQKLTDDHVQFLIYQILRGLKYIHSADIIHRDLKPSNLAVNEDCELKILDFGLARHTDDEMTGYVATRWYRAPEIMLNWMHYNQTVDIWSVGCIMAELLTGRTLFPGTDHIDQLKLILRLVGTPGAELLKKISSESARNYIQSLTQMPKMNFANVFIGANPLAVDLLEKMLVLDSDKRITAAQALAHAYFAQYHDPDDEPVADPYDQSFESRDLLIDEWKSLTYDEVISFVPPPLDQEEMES
Method: Evaluation of p38 MAPK protein inhibitory ability in brain-derived cells
In order to identify inhibition of p-p38 MAPK in brain cells, the inhibition of p38 MAPK was identified by inducing inflammation after treating each compound to SH-SYSY cells obtained by converting human neurons into cancerous cells. In short, SH-SY5Y cells were cultured in Minimum essential medium/Eagle's balanced salts supplemented with 10% fetal bovine serum and penicillin/streptomycin (100 U/ml). SH-SY5Y cells were treated with 1 μM of Compounds 4 and 6 according to the present disclosure in a culture dish respectively and cultured for 24 hours in a CO2 incubator, and then treated with 1000 ng/ml of LPS, followed by additional culture for 6 hours in a CO2 incubator.
After cell culture was terminated according to the experimental conditions, cells were washed with cold phosphate buffered saline (PBS). The cells were then collected and centrifuged at 1200 rpm for 3 minutes. The cells in the sediment were lysed with 2X sample buffer (1M Tris-HCl pH 6.8, 50% glycerol, 10% SDS, 2-mercaptoethanol, 1% bromophenol blue) and boiled at 100° C. for 10 minutes. The prepared protein samples were subjected to sodium dodecyl sulfate poly acrylamide gel electrophoresis and transferred to PVDF membrane (Millipore). For a specific binding reaction between the protein in the PVDF membrane and antibody, blocking was performed in a 5% bovine serum albumin (BSA, RMbio) solution. Subsequently, the BSA solution was discarded, and the membrane was washed with PBS-T (0.5% Tween 20 in PBS). The binding reaction of the protein in the membrane and antibody was performed overnight at 4° C. and washed again with PBS-T. Finally, a secondary antibody (Cell signaling Technology) conjugated with horse radish peroxidase (HRP) was diluted in PBS-T and reacted at room temperature for 2 hours. Luminata Forte HRP substrate (Millipore) was used to determine the amount of protein in the membrane, the results of which are shown in Table 8 below.

IL-1β mRNA [2] = test: Cytokine mRNA expression inhibitory ability, IL-1β, LPS-treated Raw264.7 cells; format: cell-based; settings: 1 μM compound 24 hours, then 100 ng/ml LPS 24 hours
Method: Evaluation of cytokine mRNA expression inhibitory ability according to inflammatory response
In order to identify inhibition of p-p38 MAPK, inhibition of p38 MAPK was identified after treating each compound to Raw264.7 cells obtained by converting macrophages that induces inflammation according to p-p38 MAPK activity cancerous cells. Briefly, Raw264.7 cells were cultured in Dulbecco's modified Eagle Medium supplemented with 10% fetal bovine serum and penicillin/streptomycin (100 U/ml). Raw264.7 cells were treated with 1 μM of Compounds 1 to 5 according to the present disclosure in a culture dish respectively and cultured for 24 hours in a CO2 incubator, and then treated with 100 ng/ml of LPS, followed by additional culture for 24 hours in a CO2 incubator.
After cell culture was terminated according to the experimental conditions, cells were washed with cold phosphate buffered saline (PBS). The cells were then collected and centrifuged at 1200 rpm for 3 minutes. RNA was extracted according to the method provided in the Hybrid-R total RNA purification kit (GeneAll, 305-101). After measuring the concentration and purity of RNA using Nanodrop, cDNA was synthesized according to the method provided in TOPscript RT DryMIX (Enzynomics, RT200). After a reaction at 95° C. for 3 minutes using SYBR Green Mix along with primer, cDNA was subjected to repetitive reactions 30 times at 95° C. for 10 seconds, at 55° C. for 10 seconds, and at 72° C. for 30 seconds to determine the RNA expression level. The results are shown in Tables 5 and 6 below and FIGS. 1 and 2.

IL-6 mRNA = test: Cytokine mRNA expression inhibitory ability, IL-6, LPS-treated BV2 cells; format: cell-based; settings: 1 μM compound 24 hours, then 1000 ng/ml LPS 24 hours
Method: as §1, §2, §3

p38 alpha = p38 alpha (Homo sapiens (Human), UniProt Q16539); test: p38α MAPK inhibitory ability (peptide/kinase mixture, development reagent, 445/520 nm); format: biochemical; settings: 1 hour at room temperature
Sequence of p38 alpha (Q16539 whole entry): as above
Method: Evaluation of p38a mitogen-activated protein kinase (MAPK) inhibitory ability
To determine the ability to inhibit p38 MAPK, Compounds 1 to 5 were diluted to determine the inhibitory effect depending on a concentration. Briefly, the compounds were diluted at concentrations of 1000, 333, 111, 37.0, 12.3, 4.12, 1.37, 0.457, 0.152, and 0.0495 nM, respectively, and then a peptide/kinase mixture (final 7.07-28.3 ng p38 alpha, 2 μM serine/threonine 15, 50 mM HEPES pH 7.0, 0.01% NaN3) and ATP solution were added respectively. After reacting at room temperature for 1 hour, a development reagent was added, followed by a reaction again at room temperature for 1 hour.

inhibition at 1 µM (p-p38 MAPK; 1 μM compound 24 hours, then 1000 ng/ml LPS 6 hours): 74.6%
IC50 (p38 alpha): 18.8 nM
SMILES: Cc1c(F)cc(C(=O)NC2CC2)cc1-c1ccc(C(=O)c2c[nH]c3ccccc23)cn1 [Compound 4, 3-(5-(1H-indole-3-carbonyl)pyridin-2-yl)-N-cyclopropyl-5-fluoro-4-methylbenzamide]
IL-1β mRNA inhibition (IL-1β mRNA [1]): 68.5%
TNFα mRNA inhibition (TNFα mRNA): 24.5%
p38 phosphorylation in cells derived from human (result in words) (p-p38 MAPK; 1 μM): effectively inhibited p38 phosphorylation
IL-1β mRNA inhibition (IL-1β mRNA [2]): 38.2%
IL-6 mRNA inhibition (IL-6 mRNA): 52.8%

Reference: patent publication US20240270713A1, “NOVEL COMPOUND EXHIBITING THERAPEUTIC EFFECT ON INFLAMMATORY DISEASE AS P38 MAP KINASE INHIBITOR” (PRAZERTHERAPEUTICS INC., priority 2021, published 2024)
